Experiments:
HEK293 cells [1] = assay: Preliminary screening as DNA vectors, GFP transfection of HEK293 cells; format: cell-based; conditions: HEK293 cells; lipid/DOPE liposome with 75 ng plasmid DNA (psin-EGFP-IRES-Puro); number of cells expressing GFP divided by total number of nuclei (Hoechst)
Summary of the method: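 First, amino lipid and DOPE were vortexed in sodium acetate buffer (pH 5.6) to form liposomes. Next, these were held with 75 ng EGFP plasmid at room temperature for 30 min. Finally, HEK293 cells were added, cultured at 37° C., Hoechst-stained, and GFP+/total nuclei scored by imaging.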

HEK293 cells [2] = assay: Preliminary screening as mRNA vectors, EGFP mRNA transfection of HEK293 cells; format: cell-based; conditions: HEK293 cells, 96-well plates, EGFP mRNA 50 ng per well; percentage of GFP fluorescent cells relative to total number of cells (Hoechst)
Summary of the method: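 Screening format: EGFP mRNA transfection (50 ng/well) into HEK293 in 10% FBS-supplemented DMEM. Percent green fluorescent cells, normalised to Hoechst nuclear count, gave the value; Lipofectamine2000 was the reference transfectant.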

Row | Compound | Absolute DNA transfection efficiency in HEK293 cells (HEK293 cells [1]) | Absolute mRNA transfection efficiency in HEK293 cells (HEK293 cells [2])
1 | CCCCCCCCCCCCCNc1nc(NCCN(C)C)nc(N(CCCCCCCCCCCC)CCCCCCCCCCCC)n1 [N13^2N12D1] | 1.2% | 4.7%
2 | CCCCCCCCCCCCCNc1nc(NCCN2CCOCC2)nc(N(CCCCCCCCCCCC)CCCCCCCCCCCC)n1 [N13^2N12D2] | 0.1% | 0.5%
3 | CCCCCCCCCCCCCNc1nc(NCCN2CCCC2)nc(N(CCCCCCCCCCCC)CCCCCCCCCCCC)n1 [N13^2N12D3] | 0.6% | 7.3%
4 | CCCCCCCCCCCCCNc1nc(NCCN2CCCCC2)nc(N(CCCCCCCCCCCC)CCCCCCCCCCCC)n1 [N13^2N12D4] | 0.8% | 4.5%
5 | CCCCCCCCCCCCCNc1nc(NCCN2CCN(C)CC2)nc(N(CCCCCCCCCCCC)CCCCCCCCCCCC)n1 [N13^2N12D5] | 0.0% | 4.9%
6 | CCCCCCCCCCCCCNc1nc(NCCCN(C)C)nc(N(CCCCCCCCCCCC)CCCCCCCCCCCC)n1 [N13^2N12D6] | 1.3% | 3.9%
7 | CCCCCCCCCCCCCNc1nc(NCCN(CC)CC)nc(N(CCCCCCCCCCCC)CCCCCCCCCCCC)n1 [N13^2N12D7] | 0.2% | 2.9%
8 | CCCCCCCCCCCCCNc1nc(NCCCN2CCOCC2)nc(N(CCCCCCCCCCCC)CCCCCCCCCCCC)n1 [N13^2N12D8] | 0.0% | 2.3%
9 | CCCCCCCCCCCCCNc1nc(NCCCN2CCN(C)CC2)nc(N(CCCCCCCCCCCC)CCCCCCCCCCCC)n1 [N13^2N12D9] | 1.7% | 2.3%
10 | CCCCCCCCCCCCCNc1nc(NCC2CCN(C)CC2)nc(N(CCCCCCCCCCCC)CCCCCCCCCCCC)n1 [N13^2N12D10] | 0.0% | 0.0%
11 | CCCCCCCCCCCCCCCNc1nc(NCCN(C)C)nc(N(CCCCCCCCCCCC)CCCCCCCCCCCC)n1 [N15^2N12D1] | 0.9% | 0.0%
12 | CCCCCCCCCCCCCCCNc1nc(NCCN2CCOCC2)nc(N(CCCCCCCCCCCC)CCCCCCCCCCCC)n1 [N15^2N12D2] | 0.5% | 0.0%
13 | CCCCCCCCCCCCCCCNc1nc(NCCN2CCCC2)nc(N(CCCCCCCCCCCC)CCCCCCCCCCCC)n1 [N15^2N12D3] | 2.4% | 0.0%
14 | CCCCCCCCCCCCCCCNc1nc(NCCN2CCCCC2)nc(N(CCCCCCCCCCCC)CCCCCCCCCCCC)n1 [N15^2N12D4] | 2.1% | 2.9%
15 | CCCCCCCCCCCCCCCNc1nc(NCCN2CCN(C)CC2)nc(N(CCCCCCCCCCCC)CCCCCCCCCCCC)n1 [N15^2N12D5] | 2.8% | 3.7%
16 | CCCCCCCCCCCCCCCNc1nc(NCCCN(C)C)nc(N(CCCCCCCCCCCC)CCCCCCCCCCCC)n1 [N15^2N12D6] | 6.3% | 9.0%
17 | CCCCCCCCCCCCCCCNc1nc(NCCN(CC)CC)nc(N(CCCCCCCCCCCC)CCCCCCCCCCCC)n1 [N15^2N12D7] | 1.3% | 0.0%
18 | CCCCCCCCCCCCCCCNc1nc(NCCCN2CCOCC2)nc(N(CCCCCCCCCCCC)CCCCCCCCCCCC)n1 [N15^2N12D8] | 0.9% | 0.9%
19 | CCCCCCCCCCCCCCCNc1nc(NCCCN2CCN(C)CC2)nc(N(CCCCCCCCCCCC)CCCCCCCCCCCC)n1 [N15^2N12D9] | 1.7% | 0.0%
20 | CCCCCCCCCCCCCCCNc1nc(NCC2CCN(C)CC2)nc(N(CCCCCCCCCCCC)CCCCCCCCCCCC)n1 [N15^2N12D10] | 0.0% | 3.5%

Row | Compound | Absolute DNA transfection efficiency in HEK293 cells (HEK293 cells [1]) | Absolute mRNA transfection efficiency in HEK293 cells (HEK293 cells [2])
21 | CCCCCCCCCCCCCCCCNc1nc(NCCN(C)C)nc(N(CCCCCCCCCCCC)CCCCCCCCCCCC)n1 [N16^2N12D1] | 0.0% | 3.4%
22 | CCCCCCCCCCCCCCCCNc1nc(NCCN2CCOCC2)nc(N(CCCCCCCCCCCC)CCCCCCCCCCCC)n1 [N16^2N12D2] | 0.4% | 0.0%
23 | CCCCCCCCCCCCCCCCNc1nc(NCCN2CCCC2)nc(N(CCCCCCCCCCCC)CCCCCCCCCCCC)n1 [N16^2N12D3] | 2.0% | 4.0%
24 | CCCCCCCCCCCCCCCCNc1nc(NCCN2CCCCC2)nc(N(CCCCCCCCCCCC)CCCCCCCCCCCC)n1 [N16^2N12D4] | 3.2% | 0.0%
25 | CCCCCCCCCCCCCCCCNc1nc(NCCN2CCN(C)CC2)nc(N(CCCCCCCCCCCC)CCCCCCCCCCCC)n1 [N16^2N12D5] | 0.6% | 0.0%
26 | CCCCCCCCCCCCCCCCNc1nc(NCCCN(C)C)nc(N(CCCCCCCCCCCC)CCCCCCCCCCCC)n1 [N16^2N12D6] | 0.5% | 0.0%
27 | CCCCCCCCCCCCCCCCNc1nc(NCCN(CC)CC)nc(N(CCCCCCCCCCCC)CCCCCCCCCCCC)n1 [N16^2N12D7] | 1.1% | 3.0%
28 | CCCCCCCCCCCCCCCCNc1nc(NCCCN2CCOCC2)nc(N(CCCCCCCCCCCC)CCCCCCCCCCCC)n1 [N16^2N12D8] | 0.4% | 4.3%
29 | CCCCCCCCCCCCCCCCNc1nc(NCCCN2CCN(C)CC2)nc(N(CCCCCCCCCCCC)CCCCCCCCCCCC)n1 [N16^2N12D9] | 0.5% | 0.0%
30 | CCCCCCCCCCCCCCCCNc1nc(NCC2CCN(C)CC2)nc(N(CCCCCCCCCCCC)CCCCCCCCCCCC)n1 [N16^2N12D10] | 1.5% | 0.0%
31 | CCCCCCCCCCCCCCCCCCNc1nc(NCCN(C)C)nc(N(CCCCCCCCCCCC)CCCCCCCCCCCC)n1 [N18^2N12D1] | 1.0% | 0.4%
32 | CCCCCCCCCCCCCCCCCCNc1nc(NCCN2CCOCC2)nc(N(CCCCCCCCCCCC)CCCCCCCCCCCC)n1 [N18^2N12D2] | 0.0% | 0.1%
33 | CCCCCCCCCCCCCCCCCCNc1nc(NCCN2CCCC2)nc(N(CCCCCCCCCCCC)CCCCCCCCCCCC)n1 [N18^2N12D3] | 1.5% | 3.4%
34 | CCCCCCCCCCCCCCCCCCNc1nc(NCCN2CCCCC2)nc(N(CCCCCCCCCCCC)CCCCCCCCCCCC)n1 [N18^2N12D4] | 0.9% | 1.2%
35 | CCCCCCCCCCCCCCCCCCNc1nc(NCCN2CCN(C)CC2)nc(N(CCCCCCCCCCCC)CCCCCCCCCCCC)n1 [N18^2N12D5] | 0.7% | 0.7%
36 | CCCCCCCCCCCCCCCCCCNc1nc(NCCCN(C)C)nc(N(CCCCCCCCCCCC)CCCCCCCCCCCC)n1 [N18^2N12D6] | 1.3% | 2.1%
37 | CCCCCCCCCCCCCCCCCCNc1nc(NCCN(CC)CC)nc(N(CCCCCCCCCCCC)CCCCCCCCCCCC)n1 [N18^2N12D7] | 0.2% | 0.7%
38 | CCCCCCCCCCCCCCCCCCNc1nc(NCCCN2CCOCC2)nc(N(CCCCCCCCCCCC)CCCCCCCCCCCC)n1 [N18^2N12D8] | 0.4% | 2.3%
39 | CCCCCCCCCCCCCCCCCCNc1nc(NCCCN2CCN(C)CC2)nc(N(CCCCCCCCCCCC)CCCCCCCCCCCC)n1 [N18^2N12D9] | 0.6% | 0.6%
40 | CCCCCCCCCCCCCCCCCCNc1nc(NCC2CCN(C)CC2)nc(N(CCCCCCCCCCCC)CCCCCCCCCCCC)n1 [N18^2N12D10] | 0.7% | 2.2%
